For eleven compounds, TGI and GI50 results are on record in PubChem BioAssay (NCI).

Several values for one entry are separate records, joined by “and”; a condition that tells them apart may be missing. Equal entries are not always repeated.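 Protocol summary: plate cells (96-well), add compound at 5 concentrations, incubate 48 h, interpolate endpoints linearly. GI50 marks 50% less growth. TGI denotes the concentration required for complete inhibition of growth.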

Test systems include HS 578T breast; M14 melanoma; MOLT-4 leukemia; NCI-H460 lung; NCI/ADR-RES ovarian; OVCAR-5 ovarian; SN12C renal; SR leukemia; SNB-78 CNS.
Common to all, as to assay: NCI anticancer screen, dose series, 48 h

For the compound `CC(C)c1c(O)ccc2c1CCC1C(C)(C)CCCC21C` (stereo not given), the TGI in the assay on HS 578T breast was 57.2 µM; in the assay with M14 melanoma, 30.2 µM; with MOLT-4 leukemia, 43.3 µM; with NCI-H460 lung, 31.7 µM; in the assay on NCI/ADR-RES ovarian, 31.2 µM; with OVCAR-5 ovarian, 28.1 µM. Besides, the figures for the TGI in the assay on SN12C renal and with SR leukemia were 27.8 µM and 40.5 µM, respectively.
On to `CCCCCCCCCCC(C(O)c1ccccc1)N1CCCCC1` (stereo not given), for which the GI50 in the assay with HS 578T breast was 2.02 µM; in the assay on M14 melanoma, 1.87 µM; in the assay with MOLT-4 leukemia, 2.23 µM; in the assay on NCI-H460 lung it was 1.84 µM; with NCI/ADR-RES ovarian it was 2.99 µM; in the assay on OVCAR-5 ovarian, 2.47 µM. Further, the GI50 with SN12C renal was 2.55 µM; with SR leukemia, 2.13 µM. The TGI in the assay with HS 578T breast was 4.52 µM; in the assay on M14 melanoma, 3.47 µM; in the assay with MOLT-4 leukemia, 5.86 µM; in the assay on NCI-H460 lung it was 3.36 µM; in the assay on NCI/ADR-RES ovarian it was 10.7 µM; in the assay on OVCAR-5 ovarian, 6.85 µM. The TGI turned out to be 10.4 µM in the assay on SN12C renal and 5.34 µM in the assay on SR leukemia.
On to `Oc1[nH]c2c(Br)cccc2c1C1=Nc2ccccc2/C1=N/OCCN1CCCC1`, for which the GI50 was 1.2 µM in the assay with HS 578T breast; 1.94 µM in the assay with M14 melanoma; 0.354 µM in the assay with MOLT-4 leukemia; 0.325 µM with NCI-H460 lung; 0.793 µM and 0.766 µM in the assay with NCI/ADR-RES ovarian; 1.21 µM and 1.91 µM in the assay on OVCAR-5 ovarian. Also, the GI50 is 0.74 µM in the assay on SN12C renal and 0.373 µM with SR leukemia. Further, the TGI is 3 µM with HS 578T breast; 3.18 µM in the assay on MOLT-4 leukemia; 2.4 µM with NCI-H460 lung; 4.82 µM and 14.7 µM with OVCAR-5 ovarian; 4.99 µM and 8.59 µM with SN12C renal; 1.77 µM in the assay with SR leukemia.
Regarding `CCN1C(=O)N(c2ccccc2)C2NC(=S)N(/N=C/C=C/c3ccccc3)C21` (stereo not given), the GI50 with HS 578T breast was 0.339 µM; in the assay with M14 melanoma it was 0.239 µM; in the assay on MOLT-4 leukemia, 0.38 µM; in the assay with NCI-H460 lung, 0.377 µM; in the assay on NCI/ADR-RES ovarian it was 0.288 µM; in the assay with OVCAR-5 ovarian it was 0.631 µM. Besides, the results for the GI50 in the assay with SN12C renal and in the assay on SR leukemia were 0.742 µM and 0.114 µM, respectively. Also, the TGI is more than 100 µM in the assay on HS 578T breast; more than 100 µM with M14 melanoma; more than 100 µM with MOLT-4 leukemia; more than 36.1 µM in the assay with NCI-H460 lung; more than 100 µM in the assay on NCI/ADR-RES ovarian; more than 100 µM in the assay with OVCAR-5 ovarian. For the same compound, the TGI in the assay on SN12C renal and in the assay on SR leukemia was more than 100 µM each time.
As for `C=C(C)[C@@H]1CC[C@]2(C)[C@H](CC=C3[C@@H]4[C@@H](C)[C@H](C)CC[C@]4(C(N)=O)CC[C@]32C)[C@@]1(C)CCC#N`, the GI50 was 11.6 µM in the assay on HS 578T breast; 4.08 µM in the assay on M14 melanoma; 2.92 µM in the assay with MOLT-4 leukemia; 8.35 µM in the assay on NCI-H460 lung; 4 µM in the assay with NCI/ADR-RES ovarian; 5.75 µM in the assay on OVCAR-5 ovarian. Besides, the GI50 was 3.36 µM in the assay with SN12C renal and 2.58 µM in the assay on SR leukemia. The TGI in the assay on HS 578T breast is 88.8 µM; in the assay on M14 melanoma it was 23.6 µM; in the assay on MOLT-4 leukemia, 21 µM; in the assay with NCI-H460 lung, 29.6 µM; in the assay on NCI/ADR-RES ovarian it was 17.2 µM; with OVCAR-5 ovarian it was more than 100 µM. For the same compound, the TGI was 10.7 µM in the assay with SN12C renal and 9.48 µM in the assay with SR leukemia.
With `O=[N+]([O-])c1cc(C2SCc3nc4ccccc4n32)ccc1Cl` (stereo not given), the TGI in the assay on MOLT-4 leukemia is more than 100 µM; with NCI-H460 lung it was more than 100 µM; in the assay on OVCAR-5 ovarian it was 76.8 µM; in the assay with SN12C renal, 33.8 µM; with SNB-78 CNS it was 80.1 µM; in the assay with SR leukemia, more than 100 µM.
In the case of `Nc1c([N+](=O)[O-])cc2c3c(cccc13)CC2`, the TGI in the assay with HS 578T breast, with M14 melanoma, in the assay with MOLT-4 leukemia, in the assay on NCI-H460 lung, with NCI/ADR-RES ovarian and with OVCAR-5 ovarian was more than 100 µM in each case. The TGI with SN12C renal and in the assay on SR leukemia was more than 100 µM in each case.
`Cc1cc(NCc2cc(Nc3ccnc4cc(Cl)ccc34)ccc2F)nc(N2CCN(C)CC2)n1`: the GI50 with HS 578T breast is 1.87 µM; with M14 melanoma, 1.56 µM; with MOLT-4 leukemia it was 1.39 µM; in the assay on NCI-H460 lung, 1.5 µM; with NCI/ADR-RES ovarian it was 2.36 µM; in the assay on OVCAR-5 ovarian it was 2.05 µM. In addition, the values for the GI50 with SN12C renal and in the assay with SR leukemia were 2.32 µM and 0.245 µM, respectively. The TGI with HS 578T breast worked out at 5.21 µM; in the assay with M14 melanoma, 3.13 µM; in the assay with MOLT-4 leukemia, 8.17 µM; in the assay on NCI-H460 lung it was 3.31 µM; with NCI/ADR-RES ovarian, 7.72 µM; in the assay on OVCAR-5 ovarian it was 5.17 µM. In addition, the TGI in the assay with SN12C renal stood at 8.31 µM; with SR leukemia it was 1.03 µM.
For the compound `CC(C)COCC(CN(Cc1ccccc1)c1ccccc1)N1CCCC1` (stereo not given), the GI50 in the assay on HS 578T breast is 3.6 µM; in the assay on M14 melanoma it was 2.3 µM; with MOLT-4 leukemia, 3.61 µM; with NCI-H460 lung, 2.54 µM; in the assay on NCI/ADR-RES ovarian, 3.12 µM; in the assay on OVCAR-5 ovarian, 3.93 µM. The GI50 was 3.48 µM with SN12C renal and 2.08 µM with SR leukemia. Further, the TGI in the assay on HS 578T breast stood at 18.2 µM; in the assay with M14 melanoma, 5.76 µM; with MOLT-4 leukemia it was 13.1 µM; with NCI-H460 lung it was 8.14 µM; with NCI/ADR-RES ovarian it was 14.4 µM; in the assay with OVCAR-5 ovarian it was 15.8 µM. Further, the TGI in the assay on SN12C renal was 15.4 µM; in the assay with SR leukemia, 5.34 µM.
`O=C1C2C(c3ccccc3)NC(c3ccccc3)C1C(c1ccccc1)NC2c1ccccc1` (stereo not given): the TGI with HS 578T breast, in the assay on M14 melanoma, with MOLT-4 leukemia, in the assay with NCI-H460 lung, in the assay on NCI/ADR-RES ovarian and with OVCAR-5 ovarian was more than 100 µM in each case. Besides, the TGI with SN12C renal and in the assay with SR leukemia was more than 100 µM each time.
As to `O=P(CCCCP(=O)(c1ccccc1)c1ccccc1)(c1ccccc1)c1ccccc1.[Cl][Sn]([Cl])([c]1ccccc1)[c]1ccccc1`, the GI50 in the assay on HS 578T breast is 4.1 µM; with M14 melanoma it was 1.77 µM; in the assay on MOLT-4 leukemia it was 2.06 µM; in the assay with NCI-H460 lung, 6.51 µM; in the assay with NCI/ADR-RES ovarian it was 2.96 µM; in the assay on OVCAR-5 ovarian, 1.93 µM. For the same compound, the GI50 in the assay on SN12C renal is 2.1 µM; in the assay on SR leukemia, 1.78 µM. Besides, the TGI in the assay with HS 578T breast was more than 50.6 µM; with M14 melanoma it was 3.81 µM; in the assay with MOLT-4 leukemia, more than 100 µM; in the assay with NCI-H460 lung, 15.9 µM; with NCI/ADR-RES ovarian, 10.8 µM; with OVCAR-5 ovarian, 4 µM. Further, the figures for the TGI with SN12C renal and with SR leukemia were 5.76 µM and more than 100 µM, respectively.
